pIC50: −log10 of the molar value.
Assays:
MOLT-4 = experiment: Cellular MOLT-4 viability assay (CellTiter-Glo, 72 hours); format: cell-based; settings: Homo sapiens, MOLT4 viability assay
Description: All cell lines were routinely tested for mycoplasma.
The effect of the CDK7 inhibitor to inhibit the growth of target cancer cells was evaluated through the 72 hours time period of viability assay. Briefly, the candidate cell line ware plated in 96 well plate at the following density of cells respectively. […] DMSO solvent without compound served as a control and final DMSO concentration less than 0.1%. After 72 hours of incubation at 37° C., 5% CO2 incubator, cells were analyzed for the viability using the CellTiter-Glo Luminescent Cell Viability Assay (Promega, Cat #G7570). All viability assays were performed in duplicate and Luminescence was read using an Envision (Perkin Elmer, USA). Data was analyzed using XLfit software.

H460 = experiment: Cellular H460 viability assay (CellTiter-Glo, 72 hours); format: cell-based; settings: Homo sapiens, NCI-H460
Method in brief: (§1)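 Cells plated in 96 wells and exposed to compound 72 h at 37 °C, 5% CO2, final DMSO below 0.1%, DMSO control. Viability by CellTiter-Glo luminescence, duplicate.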

CDK2/Cyclin A = biological target: T1, CDK2/Cyclin A (Homo sapiens, UniProt P24941); experiment: Enzymatic assay for CDK2 (FRET based LANCE Ultra kinase assay); format: biochemical; settings: read-out: CDK2 enzymatic activity (IC50 range)
T1 construct: purchased Invitrogen PV6290
Method in brief: (§2)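 Each CDK complex ([…]) phosphorylated 68 nM ULight-MBP peptide with ATP at Km for 60 min at 23° C., against 8 compound doses (4-fold dilutions). EDTA/Eu-anti-phospho-MBP detection, 60 min, then TR-FRET emission at 615 and 665 nm.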

CDK5/p25 = biological target: T2, CDK5/p25 (Homo sapiens, UniProt Q00535); experiment: Enzymatic assay for CDK5 (FRET based LANCE Ultra kinase assay); format: biochemical; settings: read-out: CDK5 enzymatic activity (IC50 range)
T2 construct: purchased Invitrogen PR8543B
T2 sequence (Q00535 whole entry): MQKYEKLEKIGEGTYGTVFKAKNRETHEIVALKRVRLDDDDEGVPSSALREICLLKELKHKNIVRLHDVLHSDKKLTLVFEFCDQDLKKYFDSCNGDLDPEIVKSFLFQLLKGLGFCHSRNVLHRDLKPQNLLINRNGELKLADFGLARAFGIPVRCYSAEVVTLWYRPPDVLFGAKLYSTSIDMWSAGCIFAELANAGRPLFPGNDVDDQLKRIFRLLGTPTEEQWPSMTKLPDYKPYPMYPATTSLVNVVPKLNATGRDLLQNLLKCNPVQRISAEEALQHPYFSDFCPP
T2 sequence (Q15078 99-307 partner limits assumed): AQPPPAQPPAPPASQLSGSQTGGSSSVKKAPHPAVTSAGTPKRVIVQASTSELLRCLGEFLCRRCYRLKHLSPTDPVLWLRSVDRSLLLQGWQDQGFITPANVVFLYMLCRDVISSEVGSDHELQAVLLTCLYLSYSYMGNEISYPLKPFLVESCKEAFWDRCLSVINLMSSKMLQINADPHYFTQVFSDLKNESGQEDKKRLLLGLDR
Method in brief: as §2

CDK7/Cyclin H/MNAT1 = biological target: T3, CDK7/Cyclin H/MNAT1 (Homo sapiens, UniProt P50613); experiment: Enzymatic assay for CDK7 (FRET based LANCE Ultra kinase assay); format: biochemical; settings: for pIC50: read-out: CDK7 enzymatic activity (IC50 range)
T3 construct: purchased Invitrogen PR6749B
T3 sequence (P50613 whole entry): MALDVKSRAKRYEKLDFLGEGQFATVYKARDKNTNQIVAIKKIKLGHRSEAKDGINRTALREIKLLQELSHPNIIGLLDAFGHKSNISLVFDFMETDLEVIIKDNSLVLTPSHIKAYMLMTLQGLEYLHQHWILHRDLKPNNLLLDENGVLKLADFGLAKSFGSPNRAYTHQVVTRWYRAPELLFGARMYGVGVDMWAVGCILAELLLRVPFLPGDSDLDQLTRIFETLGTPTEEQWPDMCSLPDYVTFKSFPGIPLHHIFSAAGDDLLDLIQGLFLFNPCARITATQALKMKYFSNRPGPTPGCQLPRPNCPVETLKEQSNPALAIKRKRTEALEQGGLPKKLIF
T3 sequence (P51946 whole entry partner): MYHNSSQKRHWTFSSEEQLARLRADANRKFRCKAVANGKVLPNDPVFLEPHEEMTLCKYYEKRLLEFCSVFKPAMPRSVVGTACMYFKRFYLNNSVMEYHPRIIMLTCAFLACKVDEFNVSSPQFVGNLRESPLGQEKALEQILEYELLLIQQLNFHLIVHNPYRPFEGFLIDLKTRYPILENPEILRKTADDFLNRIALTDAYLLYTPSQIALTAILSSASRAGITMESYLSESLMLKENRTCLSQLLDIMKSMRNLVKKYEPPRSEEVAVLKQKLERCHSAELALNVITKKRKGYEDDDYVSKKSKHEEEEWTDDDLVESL
T3 sequence (P51948 whole entry partner): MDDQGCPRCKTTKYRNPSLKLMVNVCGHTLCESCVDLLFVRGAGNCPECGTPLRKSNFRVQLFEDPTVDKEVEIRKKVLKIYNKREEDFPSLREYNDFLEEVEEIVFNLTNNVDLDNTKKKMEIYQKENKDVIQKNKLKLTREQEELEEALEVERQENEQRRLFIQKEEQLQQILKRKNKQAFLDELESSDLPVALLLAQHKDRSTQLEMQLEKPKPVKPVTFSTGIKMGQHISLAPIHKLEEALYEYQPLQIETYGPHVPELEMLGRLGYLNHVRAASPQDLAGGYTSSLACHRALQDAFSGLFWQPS
Method in brief: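 LANCE Ultra TR-FRET kinase assay using a ULight-labeled peptide substrate and a Eu-labeled anti-phospho antibody, with ATP at its Km. Purified CDK/cyclin complex was added to compound after brief centrifugation.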

CDK1/Cyclin B = biological target: T4, CDK1/Cyclin B (Homo sapiens, UniProt P06493); experiment: Enzymatic assay for CDK1 (FRET based LANCE Ultra kinase assay); format: biochemical; settings: read-out: CDK1 enzymatic activity (IC50 range)
T4 construct: purchased Invitrogen PR4768C
T4 sequence (P06493 whole entry): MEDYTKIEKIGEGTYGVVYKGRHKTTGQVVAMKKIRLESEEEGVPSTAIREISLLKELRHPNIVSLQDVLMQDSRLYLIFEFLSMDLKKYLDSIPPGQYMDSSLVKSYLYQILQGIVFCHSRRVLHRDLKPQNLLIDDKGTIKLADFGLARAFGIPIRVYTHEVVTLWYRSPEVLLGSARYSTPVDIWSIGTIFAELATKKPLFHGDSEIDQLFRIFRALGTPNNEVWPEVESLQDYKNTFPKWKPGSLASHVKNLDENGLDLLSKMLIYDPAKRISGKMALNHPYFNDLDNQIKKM
T4 sequence (P14635 whole entry partner): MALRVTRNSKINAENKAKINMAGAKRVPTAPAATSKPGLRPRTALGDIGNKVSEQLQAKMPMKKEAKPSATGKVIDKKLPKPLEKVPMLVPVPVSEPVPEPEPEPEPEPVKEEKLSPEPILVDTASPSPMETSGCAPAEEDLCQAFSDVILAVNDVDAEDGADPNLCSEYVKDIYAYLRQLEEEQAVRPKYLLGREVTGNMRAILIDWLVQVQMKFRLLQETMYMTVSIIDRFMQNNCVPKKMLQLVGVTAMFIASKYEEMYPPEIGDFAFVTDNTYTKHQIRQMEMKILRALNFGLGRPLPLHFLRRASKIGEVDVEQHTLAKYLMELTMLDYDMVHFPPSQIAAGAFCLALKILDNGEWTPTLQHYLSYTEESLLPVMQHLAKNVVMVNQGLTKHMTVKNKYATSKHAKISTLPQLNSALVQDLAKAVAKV
Method in brief: as §2

MV4-11 = experiment: Cellular MV4-11 viability assay (CellTiter-Glo, 72 hours); format: cell-based; settings: Homo sapiens
Method in brief: as §1

HCT116 = experiment: Cellular HCT116 viability assay (CellTiter-Glo, 72 hours); format: cell-based; settings: Homo sapiens, HCT-116
Method in brief: as §1

SMILES | pIC50 (MOLT-4) | pIC50 (H460) | pIC50 (CDK2/Cyclin A) | pIC50 (CDK5/p25) | CDK1/CDK7: Selectivity of CDK7 inhibition over CDK1 inhibition (CDK7/Cyclin H/MNAT1) | CDK2/CDK7: Selectivity of CDK7 inhibition over CDK2 inhibition (CDK7/Cyclin H/MNAT1) | CDK5/CDK7: Selectivity of CDK7 inhibition over CDK5 inhibition (CDK7/Cyclin H/MNAT1) | pIC50 (CDK7/Cyclin H/MNAT1) | pIC50 (CDK1/Cyclin B) | pIC50 (MV4-11) | pIC50 (HCT116)
CN(C)c1cnn2c(NCc3ccccc3-n3cccn3)nc(N3CCC(N)CC3)nc12 [Compound 60] | < 5.00 | > 6.00 | – | – | – | – | – | – | – | – | –
CC(C)c1cnn2c(NCc3cccc(N4CCN(C)CC4)c3)nc(N3CCC(N)CC3)nc12 [Compound 83] | 5.00 to 6.00 | – | 6.00 to 7.00 | 6.00 to 7.00 | A (A=greater than 200 fold) | A (A=greater than 200 fold) | B (B=less than 200 fold, but greater than 20 fold) | > 7.00 | < 6.00 | – | –
CC(C)c1cnn2c(NCc3cccc(Oc4ccc(F)c(NC(=O)CCCN(C)C)c4)c3)nc(N3CCC(N)CC3)nc12 [Compound 93] | 5.00 to 6.00 | – | 6.00 to 7.00 | 6.00 to 7.00 | A (A=greater than 200 fold) | B (B=less than 200 fold, but greater than 20 fold) | B (B=less than 200 fold, but greater than 20 fold) | > 7.00 | < 6.00 | – | –
CC(C)c1cnn2c(NCc3ccccc3Oc3ccc(NC(=O)CCCN(C)C)cc3)nc(N3CCC(N)CC3)nc12 [Compound 91] | 5.00 to 6.00 | – | 6.00 to 7.00 | 6.00 to 7.00 | A (A=greater than 200 fold) | B (B=less than 200 fold, but greater than 20 fold) | B (B=less than 200 fold, but greater than 20 fold) | > 7.00 | 6.00 to 7.00 | – | –
NC1CCN(c2nc(NCc3ccccc3-n3cccn3)n3ncc(F)c3n2)CC1 [Compound 37] | < 5.00 | – | – | – | – | – | – | – | – | – | –
CC(C)c1cnn2c(NCc3ccccc3-n3cccn3)nc(Nc3ccc(C4CCNCC4)cn3)nc12 [Compound 169] | 5.00 to 6.00 | – | < 6.00 | < 6.00 | A (A=greater than 200 fold) | B (B=less than 200 fold, but greater than 20 fold) | B (B=less than 200 fold, but greater than 20 fold) | > 7.00 | < 6.00 | – | –
CC(C)c1cnn2c(NCc3ccccc3Oc3cccc(NC(=O)CCCN(C)C)c3)nc(N3CCC(N)CC3)nc12 [Compound 82] | 5.00 to 6.00 | – | – | – | – | – | – | – | – | – | –
CC(C)c1cnn2c(NCc3cccc(N4CCN(C(=O)CCCN(C)C)CC4)c3)nc(N3CCC(N)CC3)nc12 [Compound 85] | < 5.00 | – | – | – | – | – | – | – | – | – | –
CC(C)c1cnn2c(NCc3cccc(Oc4ccc(Cl)c(NC(=O)CCCN(C)C)c4)c3)nc(N3CCC(N)CC3)nc12 [Compound 94] | 5.00 to 6.00 | – | 6.00 to 7.00 | 6.00 to 7.00 | A (A=greater than 200 fold) | B (B=less than 200 fold, but greater than 20 fold) | B (B=less than 200 fold, but greater than 20 fold) | > 7.00 | 6.00 to 7.00 | – | –
CCC(=O)Nc1cccc(Oc2cccc(CNc3nc(N4CCC(N)CC4)nc4c(C(C)C)cnn34)c2)c1 [Compound 86] | 5.00 to 6.00 | – | 6.00 to 7.00 | > 7.00 | B (B=less than 200 fold, but greater than 20 fold) | B (B=less than 200 fold, but greater than 20 fold) | C (C=less than 20 fold) | > 7.00 | 6.00 to 7.00 | – | –
NC1CCN(c2nc(NCc3ccccc3-n3cccn3)n3ncc(I)c3n2)CC1 [Compound 36] | 5.00 to 6.00 | – | 6.00 to 7.00 | > 7.00 | B (B=less than 200 fold, but greater than 20 fold) | C (C=less than 20 fold) | C (C=less than 20 fold) | > 7.00 | 6.00 to 7.00 | – | –
CC(C)c1cnn2c(NCc3ccccc3-c3ccc4ccccc4[n+]3[O-])nc(N3CCC(N)CC3)nc12 [Compound 81] | < 5.00 | – | < 6.00 | < 6.00 | A (A=greater than 200 fold) | A (A=greater than 200 fold) | A (A=greater than 200 fold) | > 7.00 | < 6.00 | – | –
CC(C)c1cnn2c(NCc3ccccc3-n3cccn3)nc(Oc3ccc(N4CCCC4)cc3)nc12 [Compound 162] | < 5.00 | – | – | – | – | – | – | – | – | – | –
CC(C)c1cnn2c(NCc3cccc(Oc4cccc(NC(=O)CCCN(C)C)c4)c3)nc(N3CCC(N)CC3)nc12 [Compound 84] | 5.00 to 6.00 | – | – | – | – | – | – | – | – | – | –
CC(C)c1cnn2c(NCc3ccccc3-n3ccc(C(C)(C)O)n3)nc(NCC3CCNCC3O)nc12 (stereo not shown) [Compound 223] | – | > 6.00 | < 6.00 | < 6.00 | A (A=greater than 200 fold) | B (B=less than 200 fold, but greater than 20 fold) | B (B=less than 200 fold, but greater than 20 fold) | > 7.00 | < 6.00 | > 6.00 | > 6.00
CC(C)c1cnn2c(NCc3c(Cl)cccc3-n3ccc(C(=O)NC4COC4)n3)nc(N3CCC(N)CC3)nc12 [Compound 205] | – | > 6.00 | < 6.00 | 6.00 to 7.00 | A (A=greater than 200 fold) | A (A=greater than 200 fold) | B (B=less than 200 fold, but greater than 20 fold) | > 7.00 | < 6.00 | > 6.00 | > 6.00
CC(C)c1cnn2c(NCc3ccccc3-n3ccc(C(C)(C)O)n3)nc(N3CCC(N)CC3)nc12 [Compound 236] | – | > 6.00 | 6.00 to 7.00 | 6.00 to 7.00 | A (A=greater than 200 fold) | B (B=less than 200 fold, but greater than 20 fold) | B (B=less than 200 fold, but greater than 20 fold) | > 7.00 | 6.00 to 7.00 | > 6.00 | > 6.00
CC(C)c1cnn2c(NCc3c(Cl)cccc3-n3ccc(N4CCOCC4)n3)nc(N3CCC(N)CC3)nc12 [Compound 202] | – | > 6.00 | < 6.00 | < 6.00 | A (A=greater than 200 fold) | A (A=greater than 200 fold) | A (A=greater than 200 fold) | > 7.00 | < 6.00 | > 6.00 | > 6.00
CC[C@@H](N)COc1nc(NCc2ccccc2-c2ccc3ccccc3n2)n2ncc(C(C)C)c2n1 [Compound 237] | – | 5.00 to 6.00 | < 6.00 | < 6.00 | A (A=greater than 200 fold) | A (A=greater than 200 fold) | A (A=greater than 200 fold) | > 7.00 | < 6.00 | 5.00 to 6.00 | 5.00 to 6.00

Source: US11945822B2, “Pyrazolo-triazine and/or pyrazolo-pxrimidine derivatives as selective inhibitor of cyclin dependent kinase” (QURIENT CO., LTD., priority 2018, dated 2024)
